Where “and” joins values, the source holds several entries; their conditions need not be identical. Identical values can stand only once.
What was measured:
[1] = tested on: bone marrow cells (megakaryocyte colony formation); experiment: Megakaryocyte colony formation-stimulating activity (ACHE-stained colonies, bone marrow cells with IL-3); type: cell-based, BALB/c mouse; conditions: with IL-3 100 U/ml, 7 days
Experimental: An eight-weeks-old BALB/c mouse was killed. Its femurs and cervical vertebrae were taken out, and both end sections thereof were cut off. Bone marrow cells were collected from the pieces cut off from the femurs and cervical vertebrae using a syringe containing IMDM (430-2200EA prepared by Gibco Co.), and then blown into a test tube. The test tube was allowed to stand for 5 minutes, and the supernatant was collected with a pipet. To a reaction mixture comprising the bone marrow cells (50,000 cells), bovine serum albumin (2%: A4508 made by Sigma Co.), transferrin (600 μg/ml 652202 made by Boehringer Mannheim Co.), IL-3 (100 U/ml), cholesterol (16 μg/ml: 036-0641 made by Wako Co.) and agar (0.6%: 0142-02 made by Difco Laboratories) were separately added the test compounds at various concentrations, and 1 ml each of the mixtures was put into a 35-mm dish (Lux Co.), followed by incubation under the conditions of 37° C., 5% CO2 and a humidity of 95% or more for 7 days. Separately, IL-3 alone was added to the bone marrow cells to prepare a control, whereas a positive control was prepared by adding 200 U/ml IL-6 to the above-mentioned reaction mixture. After the incubation was completed, the agar was dried over a filter paper (1001-055 made by Whatman Co.) and then fixed with 2.5% glutaraldehyde, followed by acetylcholinesterase staining (ACHE staining).
The ACHE staining was carried out by the method described below.
ACHE staining: To each sample was added a solution comprising 0.67 mg/ml acetylthiocholine iodide, 2.94 mg/ml sodium citrate, 7.5 mg/ml copper (II) sulfate and 1.65 mg/ml potassium ferricyanide, and the mixture was allowed to stand at room temperature in the dark for 4-6 hours.
A group of 4 or more megakaryocytes which were stained reddish brown was regarded as a colony, and the number of colonies per dish was calculated using a microscope. The results are shown in Table 2 as relative values to the control.

platelets = experiment: Platelet production-stimulating activity in mice; type: in vivo, BALB/c mice; conditions: 7.5 mg/kg/day × 5, caudal vein; for Number of platelets, individual mouse: 7.5 mg/kg/day
Experimental: BALB/c mice (male, 7-weeks-old) were divided into 2 groups. To one group (control group) was administered a solvent (1% lactic acid, 4% aqueous solution of glucose) alone. On the other hand, the test group (Compound I-1-administered group) received 0.2 ml of a solution of Compound I-1 in the above solvent at a dose of 7.5 mg/kg via the caudal vein once a day for 5 days (Day 1-Day 5). On the day before the administration (Day 0) and the seventh day after the start of administration (Day 7), the ninth day (Day 9), the 14th day (Day 14) and the 21st day (Day 21), 20 μl of blood was collected from the fundus oculi vein of the mice of each group, and the number of the platelets was counted with a microcell counter (Type CC-180A made by Toa Iryo Denshi Co.).

Acute toxicity test = conditions: mouse, in vivo, ip; male DDY mice, intraperitoneal, survival after 24 hours; read-out: LD50 (50% survival dose)
Experimental: To 6-weeks-old male DDY mice (3 per group) was intraperitoneally administered 0.2 ml of a solution of a test compound in a phosphate-buffered physiological saline. The 50% survival doses (LD50) were calculated from the survival rate after 24 hours. The LD50 for Compounds I-1, 17, 25, 26, 30-33, 35, 40 and 52 was >1 mg/kg, while that for all the other compounds was >30 mg/kg.

Row | Compound | Relative value (megakaryocyte colonies, control = 100) ([1]; 1 nM) | LD50 at 24 h (Acute toxicity test) | Relative value (megakaryocyte colonies, control = 100) ([1]; 0.1 nM) | Relative value (megakaryocyte colonies, control = 100) ([1]; 10 nM) | other results
1 | CNC1CC2OC(C)(C1OC)n1c3ccccc3c3c4c(c5c6ccccc6n2c5c31)C(=O)NC4O (stereo not drawn) [Compound I-1] | 127 | > 1 mg/kg |  |  | Number of platelets, individual mouse (platelets; Day 0 (day before administration)): 92.6 × 10^4 /mm^3 and 90.5 × 10^4 /mm^3 and 94.2 × 10^4 /mm^3 and 117.6 × 10^4 /mm^3 and 111.7 × 10^4 /mm^3 and 95.5 × 10^4 /mm^3; Number of platelets (Average) (platelets; Day 0 (day before administration), control average 110.9): 100.4 × 10^4 /mm^3; % Relative value (number of platelets, Day 0 = 100) (platelets; Day 0, control 100): 100%; Number of platelets, individual mouse (platelets; Day 7): 103.1 × 10^4 /mm^3 and 91.8 × 10^4 /mm^3 and 119.4 × 10^4 /mm^3 and 155.7 × 10^4 /mm^3 and 136.3 × 10^4 /mm^3 and 111.2 × 10^4 /mm^3; % Relative value (number of platelets, Day 0 = 100) (platelets; Day 7, control 120.3): 119.1%; Number of platelets (Average) (platelets; Day 7, control average 133.4): 119.6 × 10^4 /mm^3; Number of platelets, individual mouse (platelets; Day 9): 125.3 × 10^4 /mm^3 and 160.0 × 10^4 /mm^3 and 144.5 × 10^4 /mm^3 and 136.1 × 10^4 /mm^3 and 146.8 × 10^4 /mm^3; % Relative value (number of platelets, Day 0 = 100) (platelets; Day 9, control 103.2): 144.9%; Number of platelets (Average) (platelets; Day 9, control average 114.5): 145.5 × 10^4 /mm^3; Number of platelets, individual mouse (platelets; Day 14): 125.3 × 10^4 /mm^3 and 106.4 × 10^4 /mm^3 and 121.1 × 10^4 /mm^3 and 145.4 × 10^4 /mm^3 and 112.3 × 10^4 /mm^3 and 115.0 × 10^4 /mm^3; % Relative value (number of platelets, Day 0 = 100) (platelets; Day 14, control 98.4): 120.4%; Number of platelets (Average) (platelets; Day 14, control average 109.1): 120.9 × 10^4 /mm^3; Number of platelets, individual mouse (platelets; Day 21): 133.9 × 10^4 /mm^3 and 202.7 × 10^4 /mm^3 and 153.0 × 10^4 /mm^3 and 139.6 × 10^4 /mm^3 and 135.5 × 10^4 /mm^3 and 163.9 × 10^4 /mm^3; % Relative value (number of platelets, Day 0 = 100) (platelets; Day 21, control 103.1): 154.2%; Number of platelets (Average) (platelets; Day 21, control average 114.3): 154.8 × 10^4 /mm^3
2 | CN[C@@H]1C[C@H]2O[C@@](C)([C@@H]1OC)n1c3ccccc3c3c4c(c5c6ccccc6n2c5c31)C(=O)NC4 [Compound I-17, staurosporine] |  | > 1 mg/kg |  |  | Relative value (megakaryocyte colonies, control = 100) ([1]; 1.0 pM): 119; Relative value (megakaryocyte colonies, control = 100) ([1]; 10 pM): 107
3 | COC1C(N(C)C)CC2OC1(C)n1c3ccccc3c3c4c(c5c6ccccc6n2c5c31)C(=O)NC4 (stereo not drawn) [Compound I-25] | 124 | > 1 mg/kg | 119 | 100 | 
4 | CCCN(C)C1CC2OC(C)(C1OC)n1c3ccccc3c3c4c(c5c6ccccc6n2c5c31)C(=O)NC4 (stereo not drawn) [Compound I-26] | 121 | > 1 mg/kg | 108 | 111 | 
5 | CNC1CC2OC(C)(C1OC)n1c3ccccc3c3c4c(c5c6cc(C(C)=O)ccc6n2c5c31)C(=O)NC4 (stereo not drawn) [Compound I-30] | 119 | > 1 mg/kg | 111 | 117 | 
6 | CNC1CC2OC(C)(C1OC)n1c3ccc(C(C)=O)cc3c3c4c(c5c6cc(C(C)=O)ccc6n2c5c31)C(=O)NC4 (stereo not drawn) [Compound I-31] | 94 | > 1 mg/kg | 76 | 109 | 
7 | CNC1CC2OC(C)(C1OC)n1c3ccc(C=O)cc3c3c4c(c5c6cc(C=O)ccc6n2c5c31)C(=O)NC4 (stereo not drawn) [Compound I-32] | 94 | > 1 mg/kg | 76 | 109 | 
8 | CCCOc1ccc2c(c1)c1c3c(c4c5ccccc5n5c4c1n2C1CC(NC)C(OC)C5(C)O1)CNC3=O (stereo not drawn) [Compound I-33] | 114 | > 1 mg/kg | 101 | 105 | 
9 | COC(=O)C1(O)CC2OC1(C)n1c3ccccc3c3c4c(c5c6ccccc6n2c5c31)C(=O)NC4 (stereo not drawn) [Compound I-35, K-252a] |  | > 1 mg/kg |  |  | Relative value (megakaryocyte colonies, control = 100) ([1]; 1.0 pM): 130; Relative value (megakaryocyte colonies, control = 100) ([1]; 10 pM): 140
10 | COC(=O)C1(OC)CC2OC1(C)n1c3ccc(Br)cc3c3c4c(c5c6cc(Br)ccc6n2c5c31)C(=O)NC4 (stereo not drawn) [Compound I-40] | 125 | > 1 mg/kg | 109 | 114 | 
11 | CC12OC(CC1O)n1c3ccccc3c3c4c(c5c6ccccc6n2c5c31)CNC4=O (stereo not drawn) [Compound I-46] | 131 |  | 97 | 112 | 
12 | COC1C(N(C)C)CC2OC1(C)n1c3ccccc3c3c4c(c5c6ccccc6n2c5c31)C(=O)N(C)C4 (stereo not drawn) [Compound I-49] | 128 |  | 122 |  | 
13 | CNC1CC2OC(C)(C1OC)n1c3ccccc3c3c4c(c5c6cc(C=O)ccc6n2c5c31)C(=O)N(C)C4 (stereo not drawn) [Compound I-50] | 118 |  |  | 128 | 
14 | CNC1CC2OC(C)(C1OC)n1c3ccccc3c3c4c(c5c6cc(O)ccc6n2c5c31)C(=O)NC4 (stereo not drawn) [Compound I-52] |  | > 1 mg/kg |  |  | 
15 | IL-6: hematopoietic factor which stimulates the production of blood platelets; positive control |  |  |  |  | Relative value (megakaryocyte colonies, control = 100) ([1]; 200 U/ml, positive control): 117
